System: BACE1
Experiment: Pulse-chase and cell-surface biotinylation of newly-synthesized BACE1
Format: cell-based, human
Settings: BACE1WT expressing cells, 1.5 hours after the pulse
Experimental: Confluent cells were starved for 1 hr in Met/Cys free medium, labeled with 100 μCi [^35S]-Met/Cys (Trans35S-Label, >1000 Ci/mmol; Pierce) in starvation medium/dish and chased for 8, 16, and 24 hours with DMEM supplemented with 5 mM cold Met/Cys. Cell extracts were pre-cleared with BioMag Protein A (Polysciences, Inc.). Beads were used at the concentration of 15 μl of the slurry per sample and separated with a magnetic holder. BACE1 was then immunoprecipitated with anti-BACE1 antibodies and recovered with BioMag Protein A as above. The immunoprecipitate-bead complexes were washed 3 times and boiled in sample buffer. Beads were then separated and the samples were analyzed by reducing SDS-PAGE (on a 4-12% Bis-Tris NuPAGE system) and autoradiography.
For cell-surface biotinylation, cells were labeled as above and chased for 1.5 hours. […] Proteins were eluted and recovered as above; BACE1 was then immunopurified and analyzed by reducing SDS-PAGE and autoradiography.
FIG. 3 illustrates how transient lysine acetylation controls both translocation along the secretory pathway and molecular stability of the nascent BACE1 protein. […] Immunoprecipitates were analyzed by SDS-PAGE and autoradiography. […] BACE1 was then immunoprecipitated as above and analyzed by reducing SDS-PAGE and autoradiography. Results are expressed as percentage of total newly-synthesized BACE1. […]

CCCCCCCCCCCCC/C=C/[C@@H](O)[C@H](CO)NC(=O)CCCCC [ceramide, C6-ceramide]
translocation of newly-synthesized BACE1 to the cell surface: increasing the translocation of newly-synthesized BACE1 to the cell surface to levels almost similar to BACE1Gln

Reference: US20090042993A1, “IDENTIFICATION OF NOVEL POST-TRANSLATIONAL PROTEIN MODIFICATIONS” (priority 2007, published 2009)
